Experimental findings from ChEMBL document CHEMBL1921725, “Synthesis and SAR development of novel P2X7 receptor antagonists for the treatment of pain: part 2” (Bioorg Med Chem Lett, 2011) are described below.

Active and inactive are the calls of the source. No cut-off for these calls is given here. A value given as a limit tells only on which side of the number the result lay.

The target of data set [1] is T1, P2X purinoceptor 7 (Homo sapiens, UniProt Q99572).
T1 sequence (Q99572 whole entry): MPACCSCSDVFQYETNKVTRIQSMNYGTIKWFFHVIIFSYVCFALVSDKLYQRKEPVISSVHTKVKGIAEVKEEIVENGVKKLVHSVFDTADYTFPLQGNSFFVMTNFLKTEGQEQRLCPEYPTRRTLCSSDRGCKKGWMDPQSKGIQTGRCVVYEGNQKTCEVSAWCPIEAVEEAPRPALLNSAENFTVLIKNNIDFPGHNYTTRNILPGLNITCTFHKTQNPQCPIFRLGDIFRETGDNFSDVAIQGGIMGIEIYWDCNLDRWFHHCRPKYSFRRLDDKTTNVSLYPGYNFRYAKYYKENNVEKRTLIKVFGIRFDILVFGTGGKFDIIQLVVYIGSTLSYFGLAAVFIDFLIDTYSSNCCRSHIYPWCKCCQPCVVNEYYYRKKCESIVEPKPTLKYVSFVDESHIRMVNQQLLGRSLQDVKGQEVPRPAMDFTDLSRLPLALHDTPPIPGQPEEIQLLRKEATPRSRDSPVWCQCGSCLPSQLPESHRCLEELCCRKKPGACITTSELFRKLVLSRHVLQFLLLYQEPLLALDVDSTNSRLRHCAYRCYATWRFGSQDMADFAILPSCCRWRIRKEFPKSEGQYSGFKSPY
Kind of data set: Antagonist activity at P2X7 receptor in LPS-stimulated human whole blood assessed as inhibition of ATP-induced IL1-beta production treated 30 mins before LPS challenge measured after 3 hrs by ELISA. The format is functional, tissue-based. In general terms: ELISA stands for enzyme-linked immunosorbent assay.

Data set [2] can be described thus: AUC in rapid rat model at 10 mg/kg, po. More on the design: dose 10 mg/kg, route oral. Conditions: in vivo. The format is ADME, organism-based.
Data set [3] in a line: Plasma concentration in rapid rat model plasma at 10 mg/kg, po after 6 hrs. Further details: dose 10 mg/kg, route oral. It is filed as ADME, organism-based.
Data set [4] deals with Sodium-dependent noradrenaline transporter (Homo sapiens) (UniProt P23975). Briefly: Inhibition of norepinephrine transporter at 10 uM.
Sodium-dependent noradrenaline transporter (Homo sapiens), sequence (P23975 whole entry): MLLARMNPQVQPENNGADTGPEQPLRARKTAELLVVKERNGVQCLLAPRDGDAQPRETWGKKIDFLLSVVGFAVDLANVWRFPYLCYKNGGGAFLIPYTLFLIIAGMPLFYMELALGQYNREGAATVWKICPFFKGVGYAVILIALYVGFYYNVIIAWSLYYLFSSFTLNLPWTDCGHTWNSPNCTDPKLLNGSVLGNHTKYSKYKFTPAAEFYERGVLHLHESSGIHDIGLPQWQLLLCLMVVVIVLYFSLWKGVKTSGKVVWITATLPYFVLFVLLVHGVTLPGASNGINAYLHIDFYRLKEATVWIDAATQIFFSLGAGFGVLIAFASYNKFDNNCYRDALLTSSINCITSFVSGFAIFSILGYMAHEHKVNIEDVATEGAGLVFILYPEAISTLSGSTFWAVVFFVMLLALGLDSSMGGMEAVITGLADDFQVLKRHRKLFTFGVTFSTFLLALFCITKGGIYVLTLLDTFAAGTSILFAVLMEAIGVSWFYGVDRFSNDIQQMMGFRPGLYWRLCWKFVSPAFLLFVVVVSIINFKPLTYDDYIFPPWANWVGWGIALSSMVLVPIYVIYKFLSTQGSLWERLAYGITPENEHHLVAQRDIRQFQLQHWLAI
Data set [5] has as its system Rattus norvegicus. Briefly: Antihyperalgesic activity in rat mono-iodacetate-induced hyperalgesia model at 1 to 3 mg/kg, po after 4 hrs. The format is functional, organism-based.
Data set [6] deals with Rattus norvegicus. Briefly: Analgesic activity in rat spinal nerve ligation neuropathic pain model at 10 to 30 mg/kg, po after 4 hrs relative to pregabalin. It is filed as functional, organism-based.
The subject of data set [7] is Rattus norvegicus. Briefly: Analgesic activity in rat chronic constriction injury neuroinflammatory pain model at 60 mg/kg, po after 4 hrs relative to gabapentin. The format is functional, organism-based. More on the design: dose 60 mg/kg.
Data set [8] deals with Rattus norvegicus. Kind of data set: Analgesic activity in rat chronic constriction injury neuroinflammatory pain model at 1 to 3 mg/kg, po after 4 hrs. It is filed as functional, organism-based.
Data set [9] deals with T2, P2X purinoceptor 7 (Rattus norvegicus, UniProt Q64663).
T2 sequence (Q64663 whole entry): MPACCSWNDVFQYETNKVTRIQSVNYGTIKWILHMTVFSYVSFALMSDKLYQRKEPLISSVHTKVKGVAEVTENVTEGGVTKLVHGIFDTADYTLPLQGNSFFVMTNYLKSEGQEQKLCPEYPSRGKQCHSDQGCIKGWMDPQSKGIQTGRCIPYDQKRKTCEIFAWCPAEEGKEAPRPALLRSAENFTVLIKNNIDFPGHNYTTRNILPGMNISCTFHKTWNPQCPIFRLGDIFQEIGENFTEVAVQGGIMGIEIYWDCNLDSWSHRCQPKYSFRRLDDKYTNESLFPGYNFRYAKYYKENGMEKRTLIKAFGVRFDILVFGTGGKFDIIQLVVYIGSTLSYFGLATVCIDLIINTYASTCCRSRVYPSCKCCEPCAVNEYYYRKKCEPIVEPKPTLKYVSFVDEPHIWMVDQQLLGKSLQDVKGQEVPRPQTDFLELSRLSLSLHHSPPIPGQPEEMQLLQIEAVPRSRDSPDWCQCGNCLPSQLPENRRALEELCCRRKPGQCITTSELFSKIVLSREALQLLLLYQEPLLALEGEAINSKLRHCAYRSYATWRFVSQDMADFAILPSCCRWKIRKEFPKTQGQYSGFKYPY
Briefly: Antagonist activity at P2X7 receptor in rat whole blood. It is filed as functional, tissue-based.

Data set [10] is described as follows: Inhibition of L-type calcium channel diltiazem binding site at 10 uM.
Data set [11] can be described thus: Inhibition of sodium channel site 2 at 10 uM.
Data set [12] concerns Rattus norvegicus. Kind of data set: Analgesic activity in rat streptozocin-induced diabetic neuropathy model at 10 mg/kg, po after 4 hrs relative to gabapentin. It is filed as functional, organism-based. More on the design: dose 10 mg/kg.
Data set [13] can be described thus: Inhibition of chloride channel at 10 uM.
Data set [14] concerns Rattus norvegicus. Briefly: Antihyperalgesic activity in rat mono-iodacetate-induced hyperalgesia model at 50 mg/kg, po after 4 hrs relative to naproxen. It is filed as functional, organism-based. More on the design: dose 50 mg/kg.
For data set [15], the system named is Rattus norvegicus. Briefly: Analgesic activity in rat streptozocin-induced diabetic neuropathy model at 10 mg/kg, po after 4 hrs. More on the design: dose 10 mg/kg. The format is functional, organism-based.
In data set [16] the target is T3, P2X purinoceptor 4 (Homo sapiens) (UniProt Q99571).
T3 sequence (whole entry): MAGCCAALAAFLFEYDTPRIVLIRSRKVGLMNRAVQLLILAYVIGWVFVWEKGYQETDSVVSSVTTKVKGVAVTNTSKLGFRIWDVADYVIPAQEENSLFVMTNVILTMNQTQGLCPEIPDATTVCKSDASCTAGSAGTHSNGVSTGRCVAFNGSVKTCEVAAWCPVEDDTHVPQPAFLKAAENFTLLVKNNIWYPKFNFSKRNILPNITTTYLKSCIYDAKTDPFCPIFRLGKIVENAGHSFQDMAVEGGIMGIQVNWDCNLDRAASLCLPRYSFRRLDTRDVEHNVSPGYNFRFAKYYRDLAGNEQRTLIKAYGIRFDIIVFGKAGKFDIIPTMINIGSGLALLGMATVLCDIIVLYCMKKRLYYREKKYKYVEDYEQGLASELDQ
Kind of data set: Inhibition of P2X4 receptor at 10 uM.

Take `CCN1C(=O)c2nc(-c3ccc(-c4ccccc4)cc3)n(Cc3cc(F)ccc3F)c2N2C[C@@H](C(C)C)N=C12`: the IC50 (commonly the concentration needed to halve the response being measured) in data set [1] worked out at 1040 nM.

As to `CCN1C(=O)c2nc(-c3ccc(-c4ccccc4)cc3)n(Cc3ccc(F)cc3F)c2N2C[C@@H](C(C)C)N=C12`, the IC50 in data set [1] was 845 nM.

For the compound `CCN1C(=O)c2nc(-c3ccc(-c4ccccc4)cc3)n(Cc3ccc(F)cc3F)c2N2CC(C)(C)N=C12`, the half-maximal inhibitory concentration (IC50) in data set [1] came out at 700 nM.

As for `CCN1C(=O)c2nc(-c3ccc(-c4ccc(C(F)(F)F)cc4)nc3)n(Cc3ccc(F)c(F)c3)c2N2CC(C)(C)N=C12`, the AUC (as a rule, the area under the concentration-time curve, a measure of exposure) in data set [2] was 5.68 µM·h. Also, the concentration at 6 h in [3] is 1570 nM. Besides, the IC50 in data set [1] worked out at 137 nM.

In [2], `CCN1C(=O)c2nc(-c3ccc(-c4cccc(F)c4)nc3)n(Cc3ccc(F)c(F)c3)c2N2CC(C)(C)N=C12` yielded an AUC of 3.56 µM·h. In addition, the concentration at 6 h in [3] was determined as 897 nM. In data set [1], the IC50 amounted to 28 nM.

Take `CCN1C(=O)c2nc(-c3ccc(-c4ccc(OC)cc4)nc3)n(Cc3ccc(F)c(F)c3)c2N2CC(C)(C)N=C12`: the IC50 in data set [1] stood at 50 nM.

`CCN1C(=O)c2nc(-c3ccc(-c4ccccc4)cc3)n(Cc3cc(F)cc(F)c3)c2N2C[C@@H](C(C)C)N=C12` had an AUC in data set [2] of 1.11 µM·h. Besides, in [3], the concentration at 6 h is 93 nM. Besides, the IC50 in [1] amounted to 107 nM.

On to `CCN1C(=O)c2nc(-c3ccc(-c4ccccc4F)nc3)n(Cc3ccc(F)c(F)c3)c2N2CC(C)(C)N=C12`, for which, in data set [2], the AUC stood at 2.71 µM·h. This compound gave a concentration at 6 h in data set [3] of 537 nM. Further, in [1], the IC50 came out at 52 nM.

For `CCN1C(=O)c2nc(-c3ccc(-c4ccccc4)cc3)n(Cc3cccc(F)c3)c2N2C[C@@H](C(C)C)N=C12`, in data set [1], the IC50 came out at 269 nM.

As for `CCN1C(=O)c2nc(-c3ccc(-c4ccc(C)cc4)nc3)n(Cc3ccc(F)c(F)c3)c2N2CC(C)(C)N=C12`, the IC50 in [1] turned out to be 39 nM.

In turn, `CCN1C(=O)c2nc(-c3ccc(-c4ccc(F)cc4)nc3)n(Cc3ccc(F)c(F)c3)c2N2CC(C)(C)N=C12` displayed an AUC in [2] of 3.56 µM·h. Besides, the concentration at 6 h in data set [3] came to 897 nM. Besides, the IC50 in data set [1] is 45 nM.

As for `CCN1C(=O)c2nc(-c3ccc(-c4ccccc4)cc3)n(Cc3ccc(F)c(F)c3)c2N2CC3(CCCCC3)N=C12`, the IC50 in data set [1] was found to be 388 nM.

`CCN1C(=O)c2nc(-c3ccc(-c4cccc(C(F)(F)F)c4)nc3)n(Cc3ccc(F)c(F)c3)c2N2CC(C)(C)N=C12` gave an AUC in [2] of 1.84 µM·h. Besides, the concentration at 6 h in data set [3] is 395 nM. In data set [1], the IC50 is 104 nM.

For the compound `CCN1C(=O)c2nc(-c3ccc(-c4ccccc4)cc3)n(Cc3ccc(F)cc3)c2N2CC(C)(C)N=C12`, in data set [1], the IC50 came out at 276 nM.

With `CCN1C(=O)c2nc(-c3ccc(-c4ccccc4)cc3)n(Cc3ccc(F)c(F)c3)c2N2CCC(C)(C)N=C12`, in data set [1], the IC50 stood at 108 nM.

As to `CCN1C(=O)c2nc(-c3ccc(-c4ccccc4)cc3)n(Cc3ccc(F)c(F)c3)c2N2CC(C)(C)N=C12`, the inhibition (commonly how much of the control response was suppressed) in data set [4] was more than 80%; in data set [10], more than 80%; in [11] it was more than 80%; in data set [13], more than 80%; in data set [16], 55%. Further, the result in [5], in data set [6], in data set [7], in data set [8], in data set [12] and in data set [14] was Active. Also, the outcome in data set [15] was Active. In addition, the IC50 was 121 nM in [9] and 85 nM in [1]. In [2], this compound yielded an AUC of 6.86 µM·h. In [3], this compound showed a concentration at 6 h of 1370 nM.

In data set [2], `CCN1C(=O)c2nc(-c3ccc(-c4ccc(F)cc4F)nc3)n(Cc3ccc(F)c(F)c3)c2N2CC(C)(C)N=C12` displayed an AUC of 4.14 µM·h. Besides, the concentration at 6 h in data set [3] stood at 537 nM. In addition, the IC50 in data set [1] is 95 nM.

Consider `CCN1C(=O)c2nc(-c3ccc(-c4cccc(C)c4)nc3)n(Cc3ccc(F)c(F)c3)c2N2CC(C)(C)N=C12`, for which the AUC in [2] is 0.231 µM·h. The IC50 in data set [1] was 25 nM.

For the compound `CCN1C(=O)c2nc(-c3ccc(-c4ccccc4)cc3)n(Cc3ccc(F)c(F)c3)c2N2C[C@@H](C(C)C)N=C12`, the area under the curve (AUC) in [2] is 3.76 µM·h. The compound also yielded a concentration at 6 h in [3] of 392 nM. Also, in [1], the concentration for half-maximal inhibition (IC50) was found to be 178 nM.

In the case of `CCN1C(=O)c2nc(-c3ccc(-c4ccccc4)cc3)n(Cc3ccc(F)cc3)c2N2C[C@@H](C(C)C)N=C12`, in data set [1], the IC50 was determined as 237 nM.

As to `CCN1C(=O)c2nc(-c3ccc(-c4cccc(OC(F)(F)F)c4)nc3)n(Cc3ccc(F)c(F)c3)c2N2CC(C)(C)N=C12`, the IC50 in data set [1] came to 110 nM.

Compound `CCN1C(=O)c2nc(-c3ccc(-c4cc(F)cc(F)c4)nc3)n(Cc3ccc(F)c(F)c3)c2N2CC(C)(C)N=C12` gave an AUC in [2] of 7.54 µM·h. In addition, the concentration at 6 h in data set [3] worked out at 1260 nM. In addition, the IC50 in data set [1] worked out at 55 nM.

For the compound `CCN1C(=O)c2nc(-c3ccc(-c4ccccc4)cc3)n(Cc3cc(F)cc(F)c3)c2N2CC(C)(C)N=C12`, the IC50 in [1] came to 91 nM.

Consider `CCN1C(=O)c2nc(-c3ccc(-c4ccccc4OC)nc3)n(Cc3ccc(F)c(F)c3)c2N2CC(C)(C)N=C12`, for which, in [2], the AUC came to 1.62 µM·h. Also, in data set [3], the concentration at 6 h came to 224 nM. Further, the half-maximal inhibitory concentration (IC50) in data set [1] is 101 nM.

As for `CCN1C(=O)c2nc(-c3ccc(-c4ccccc4)nc3)n(Cc3ccc(F)c(F)c3)c2N2CC(C)(C)N=C12`, the AUC in [2] came out at 13.7 µM·h. This compound showed a concentration at 6 h in data set [3] of 2640 nM. The IC50 in [1] is 24 nM.

For `CCN1C(=O)c2nc(-c3ccc(-c4ccccc4)cc3)n(Cc3cccc(F)c3F)c2N2C[C@@H](C(C)C)N=C12`, the IC50 in [1] came out at 870 nM.

Turning to `CCN1C(=O)c2nc(-c3ccc(-c4ccc(OC(F)(F)F)cc4)nc3)n(Cc3ccc(F)c(F)c3)c2N2CC(C)(C)N=C12`, the IC50 in [1] was 1940 nM.

As for `CCN1C(=O)c2nc(-c3ccc(-c4ccccc4)cc3)n(Cc3ccccc3F)c2N2C[C@@H](C(C)C)N=C12`, the IC50 in data set [1] was determined as 937 nM.
